Data as given in ChEMBL document CHEMBL6127107, “Oleanolic acid derivatives against drug-resistant bacteria and fungi by multi-targets to avoid drug resistance” (Eur J Med Chem, 2024).
In brackets after ≈: the same amount, converted by molar mass.

Experiments:
Assay type in all cases: functional
Staphylococcus aureus [1] = experiment: Antimicrobial activity against methicillin-resistant Staphylococcus aureus 003
Staphylococcus aureus [2] = experiment: Antimicrobial activity against Staphylococcus aureus 31
Enterococcus faecalis = experiment: Antimicrobial activity against vancomycin resistant Enterococcus faecalis ATCC 51299
Escherichia coli = experiment: Antimicrobial activity against Escherichia coli
Pseudomonas aeruginosa = experiment: Antimicrobial activity against Pseudomonas aeruginosa
Staphylococcus aureus [3] = experiment: Antimicrobial activity against Staphylococcus aureus 10
Staphylococcus aureus [4] = experiment: Antimicrobial activity against Staphylococcus aureus 29
Staphylococcus aureus [5] = experiment: Antimicrobial activity against methicillin-resistant Staphylococcus aureus 011
Candida albicans = experiment: Antimicrobial activity against fluconazole-resistant Candida albicans

SMILES | MIC (Staphylococcus aureus [1]) | MIC (Staphylococcus aureus [2]) | MIC (Enterococcus faecalis) | MIC (Escherichia coli) | MIC (Pseudomonas aeruginosa) | MIC (Staphylococcus aureus [3]) | MIC (Staphylococcus aureus [4]) | MIC (Staphylococcus aureus [5]) | MIC (Candida albicans)
CCCCCOC(=O)[C@]12CCC(C)(C)C[C@H]1C1=CC[C@@H]3[C@@]4(C)CC[C@H](O)C(C)(C)[C@@H]4CC[C@@]3(C)[C@]1(C)CC2 | > 64 µg/mL | > 64 µg/mL | > 64 µg/mL | > 64 µg/mL | > 64 µg/mL | > 64 µg/mL | > 64 µg/mL | > 64 µg/mL | > 64 µg/mL
CCCOC(=O)[C@]12CCC(C)(C)C[C@H]1C1=CC[C@@H]3[C@@]4(C)CC[C@H](O)C(C)(C)[C@@H]4CC[C@@]3(C)[C@]1(C)CC2 | > 64 µg/mL | > 64 µg/mL | > 64 µg/mL | > 64 µg/mL | > 64 µg/mL | > 64 µg/mL | > 64 µg/mL | > 64 µg/mL | > 64 µg/mL
CC1(C)CC[C@]2(C(=O)O)CC[C@]3(C)C(=CC[C@@H]4[C@@]5(C)CC[C@H](OCC(O)CN6CCCCC6)C(C)(C)[C@@H]5CC[C@]43C)[C@@H]2C1 (some centres undefined) | > 64 µg/mL | > 64 µg/mL | > 64 µg/mL | > 64 µg/mL | > 64 µg/mL | > 64 µg/mL | > 64 µg/mL | > 64 µg/mL | > 64 µg/mL
CCCCCCCCCCCCCOC(=O)[C@]12CCC(C)(C)C[C@H]1C1=CC[C@@H]3[C@@]4(C)CC[C@H](O)C(C)(C)[C@@H]4CC[C@@]3(C)[C@]1(C)CC2 | > 64 µg/mL | > 64 µg/mL | > 64 µg/mL | > 64 µg/mL | > 64 µg/mL | > 64 µg/mL | > 64 µg/mL | > 64 µg/mL | > 64 µg/mL
CCNCC(O)CO[C@H]1CC[C@]2(C)[C@H]3CC=C4[C@@H]5CC(C)(C)CC[C@]5(C(=O)O)CC[C@@]4(C)[C@]3(C)CC[C@H]2C1(C)C (some centres undefined) | > 64 µg/mL | > 64 µg/mL | > 64 µg/mL | > 64 µg/mL | > 64 µg/mL | > 64 µg/mL | > 64 µg/mL | > 64 µg/mL | > 64 µg/mL
CC1(C)CC[C@]2(C(=O)O)CC[C@]3(C)C(=CC[C@@H]4[C@@]5(C)CC[C@H](OCC(O)CNCc6ccoc6)C(C)(C)[C@@H]5CC[C@]43C)[C@@H]2C1 (some centres undefined) | > 64 µg/mL | > 64 µg/mL | > 64 µg/mL | > 64 µg/mL | > 64 µg/mL | > 64 µg/mL | > 64 µg/mL | > 64 µg/mL | > 64 µg/mL
CC(=O)O[C@H]1CC[C@]2(C)[C@H]3CC=C4[C@@H]5CC(C)(C)CC[C@]5(C(=O)N5CCCCC5)CC[C@@]4(C)[C@]3(C)CC[C@H]2C1(C)C | > 64 µg/mL | > 64 µg/mL | > 64 µg/mL | > 64 µg/mL | > 64 µg/mL | > 64 µg/mL | > 64 µg/mL | > 64 µg/mL | > 64 µg/mL
CCCCCCC(=O)O[C@H]1CC[C@]2(C)[C@H]3CC=C4[C@@H]5CC(C)(C)CC[C@]5(C(=O)O)CC[C@@]4(C)[C@]3(C)CC[C@H]2C1(C)C | > 64 µg/mL | > 64 µg/mL | > 64 µg/mL | > 64 µg/mL | > 64 µg/mL | > 64 µg/mL | > 64 µg/mL | > 64 µg/mL | > 64 µg/mL
CC1(C)CC[C@]2(C(=O)O[C@@H]3O[C@H](CO)[C@H](O)[C@H](O)[C@H]3O)CC[C@]3(C)C(=CC[C@@H]4[C@@]5(C)CC[C@H](O[C@@H]6O[C@H](C(=O)O)[C@@H](O)[C@H](O)[C@H]6O)C(C)(C)[C@@H]5CC[C@]43C)[C@@H]2C1 | > 512 µg/mL |  | > 512 µg/mL |  |  |  |  |  | 
C[C@H]1[C@H](C)CC[C@]2(C(=O)O)CC[C@]3(C)C(=CC[C@@H]4[C@@]5(C)CC[C@H](O)C(C)(C)[C@@H]5CC[C@]43C)[C@H]12 [URSOLIC ACID] | 64 µg/mL (≈ 140 µM) |  | 64 µg/mL (≈ 140 µM) |  |  |  |  |  | 
CC(=O)O[C@H]1CC[C@]2(C)[C@H]3CC=C4[C@@H]5CC(C)(C)CC[C@]5(C(=O)NCCc5ccccc5)CC[C@@]4(C)[C@]3(C)CC[C@H]2C1(C)C | > 64 µg/mL | > 64 µg/mL | > 64 µg/mL | > 64 µg/mL | > 64 µg/mL | > 64 µg/mL | > 64 µg/mL | > 64 µg/mL | > 64 µg/mL
CC1(C)[C@@H](O[C@@H]2O[C@H](C(=O)O)[C@@H](O)[C@H](O[C@@H]3O[C@H](C(=O)O)[C@@H](O)[C@H](O)[C@H]3O)[C@H]2O)CC[C@]2(C)[C@H]3C(=O)C=C4[C@@H]5C[C@@](C)(C(=O)O)CC[C@]5(C)CC[C@@]4(C)[C@]3(C)CC[C@@H]12 [GLYCYRRHIZINIC ACID] | > 512 µg/mL |  | > 512 µg/mL |  |  |  |  |  | 
CCCC(=O)O[C@H]1CC[C@]2(C)[C@H]3CC=C4[C@@H]5CC(C)(C)CC[C@]5(C(=O)O)CC[C@@]4(C)[C@]3(C)CC[C@H]2C1(C)C | > 64 µg/mL | > 64 µg/mL | > 64 µg/mL | > 64 µg/mL | > 64 µg/mL | > 64 µg/mL | > 64 µg/mL | > 64 µg/mL | > 64 µg/mL
CC(=O)O[C@H]1CC[C@]2(C)[C@H]3CC=C4[C@@H]5CC(C)(C)CC[C@]5(C(=O)N(C)C)CC[C@@]4(C)[C@]3(C)CC[C@H]2C1(C)C | > 64 µg/mL | > 64 µg/mL | > 64 µg/mL | > 64 µg/mL | > 64 µg/mL | > 64 µg/mL | > 64 µg/mL | > 64 µg/mL | > 64 µg/mL
CC1(C)CC[C@]2(C(=O)O)CC[C@]3(C)C(=CC[C@@H]4[C@@]5(C)CC[C@H](OC(=O)c6ccccc6)C(C)(C)[C@@H]5CC[C@]43C)[C@@H]2C1 | > 64 µg/mL | > 64 µg/mL | > 64 µg/mL | > 64 µg/mL | > 64 µg/mL | > 64 µg/mL | > 64 µg/mL | > 64 µg/mL | > 64 µg/mL
